pIC50: −log10 of the molar value.
Key:
jack bean urease = target: T1, jack bean urease (Canavalia ensiformis, UniProt P07374); test: inhibition of purified urease; coupled glutamate dehydrogenase/NADH depletion assay at […] nm; format: biochemical
T1 construct: commercially purified jack bean urease

S. aureus urease [1] = target: T2, S. aureus urease (Staphylococcus aureus, UniProt Q2FEK3); test: urease activity in cell-free lysate with […] urea; coupled glutamate dehydrogenase/NADH assay; format: biochemical
T2 construct: gene ureC; native urease in cell-free lysates of S. aureus LAC (USA300); with UreA, UreB (urease subunits)

S. aureus urease [2] = target: T3, S. aureus urease (Staphylococcus aureus, UniProt P67403); test: urea hydrolysis in lysates by coupled enzyme assay; activity lost in ureD::Tn mutant and restored by complementation; format: cell-based
T3 construct: gene ureC; native urease in cell lysates of S. aureus LAC (USA300); with UreA, UreB (urease subunits)
T3 sequence (P67403 whole entry): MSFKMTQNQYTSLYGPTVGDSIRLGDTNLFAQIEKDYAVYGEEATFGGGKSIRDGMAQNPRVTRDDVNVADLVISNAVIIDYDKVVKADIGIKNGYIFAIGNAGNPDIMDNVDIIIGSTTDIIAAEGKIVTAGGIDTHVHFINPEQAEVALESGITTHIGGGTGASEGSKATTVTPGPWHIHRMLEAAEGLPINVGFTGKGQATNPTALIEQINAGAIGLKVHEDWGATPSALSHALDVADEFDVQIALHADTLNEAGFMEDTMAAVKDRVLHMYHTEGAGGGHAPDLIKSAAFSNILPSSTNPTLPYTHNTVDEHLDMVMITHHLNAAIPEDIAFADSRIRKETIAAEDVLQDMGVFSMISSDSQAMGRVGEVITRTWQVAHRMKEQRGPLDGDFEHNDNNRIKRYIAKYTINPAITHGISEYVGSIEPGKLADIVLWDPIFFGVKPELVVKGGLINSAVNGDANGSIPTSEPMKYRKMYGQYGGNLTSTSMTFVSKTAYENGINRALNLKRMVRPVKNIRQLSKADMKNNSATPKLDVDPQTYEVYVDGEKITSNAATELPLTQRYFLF

T1 sequence (P07374 whole entry, looked up): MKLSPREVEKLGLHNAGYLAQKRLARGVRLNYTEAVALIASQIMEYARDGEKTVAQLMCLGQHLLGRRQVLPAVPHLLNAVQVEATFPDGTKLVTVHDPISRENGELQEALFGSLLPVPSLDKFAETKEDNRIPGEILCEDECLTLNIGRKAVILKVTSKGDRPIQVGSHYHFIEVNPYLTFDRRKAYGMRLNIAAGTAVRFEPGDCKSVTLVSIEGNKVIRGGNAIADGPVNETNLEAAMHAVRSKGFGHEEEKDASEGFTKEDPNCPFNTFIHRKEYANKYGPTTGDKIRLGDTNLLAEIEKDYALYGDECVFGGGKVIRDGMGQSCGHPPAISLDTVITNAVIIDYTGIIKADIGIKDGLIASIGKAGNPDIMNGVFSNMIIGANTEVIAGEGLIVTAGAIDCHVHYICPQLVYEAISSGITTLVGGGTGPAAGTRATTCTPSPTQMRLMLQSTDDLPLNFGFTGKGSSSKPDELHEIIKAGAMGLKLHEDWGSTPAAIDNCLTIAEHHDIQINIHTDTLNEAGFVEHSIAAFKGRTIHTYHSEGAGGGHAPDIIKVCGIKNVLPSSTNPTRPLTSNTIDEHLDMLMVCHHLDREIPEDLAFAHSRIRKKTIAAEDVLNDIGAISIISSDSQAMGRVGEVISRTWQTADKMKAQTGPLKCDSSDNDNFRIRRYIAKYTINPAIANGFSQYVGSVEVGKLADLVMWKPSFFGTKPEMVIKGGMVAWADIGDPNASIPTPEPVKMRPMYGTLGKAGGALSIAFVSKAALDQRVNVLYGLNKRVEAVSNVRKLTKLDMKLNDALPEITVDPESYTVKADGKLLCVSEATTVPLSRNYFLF
T2 sequence (Q2FEK4 whole entry): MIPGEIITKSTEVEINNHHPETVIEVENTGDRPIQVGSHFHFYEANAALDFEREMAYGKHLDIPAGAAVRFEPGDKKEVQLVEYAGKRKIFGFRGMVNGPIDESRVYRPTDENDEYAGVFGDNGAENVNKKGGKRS
T2 sequence (Q2FEK3 whole entry): as the sequence (P67403 whole entry) above
T2 sequence (Q2FEK5 whole entry, further chain): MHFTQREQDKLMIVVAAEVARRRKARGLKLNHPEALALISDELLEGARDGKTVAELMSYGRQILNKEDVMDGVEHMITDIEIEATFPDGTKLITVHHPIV

Compound	pIC50 (jack bean urease)	pIC50 (S. aureus urease [1])	urea hydrolysis in lysates by coupled enzyme assay; activity lost in ureD::Tn mu (S. aureus urease [2])
NP(N)(=O)NC(=O)c1ccc(F)cc1 [FF, N-(diaminophosphinyl)-4-fluorobenzenamide]	6.88	7.47	
NC(N)=O [urea]			loss of urease activity in the mutant strain and reconstitution of activity in the complementation strain using a coupled enzyme assay

Source: paper PMC12548400, “Urease promotes pH homeostasis and growth of Staphylococcus aureus in skin-like conditions” (Journal of Bacteriology, 2025)
